Reference: US7829666B2, “Maurotoxin, PI1 and HSTX1 derivatives” (Cellpep Pharma Inc., priority 2000, dated 2010)
Bridge positions count the residues as written; N and C are the ends. Square brackets hold non-standard residues; d marks the D form. Peptide text beside a SMILES is read from it. Abu = CC[C@H](N)C(=O)O

Columns and labels:
[1] = system: Ca2+-activated K+ channels, e.g. apamin-sensitive SK channels; details: background statement; cited from earlier work
[2] = biological target: rat Kv1.3 channels (Rattus norvegicus, UniProt P15384); details: background statement; cited from earlier work
[3] = biological target: T1, mammalian voltage-gated Kv1.2 channel subtype (Homo sapiens, UniProt P16389); details: background statement; picomolar or nanomolar concentration range; cited from earlier work
[4] = Lethality/toxicity in C57/BL6 mice, intracerebroventricular injection; assay type: in vivo; details: mouse, in vivo
Text: (§1) The MTX derivatives, as well as the MTX structurally homologous Pi1 or HsTx1 derivatives, of the invention are thus of potential therapeutic value for treating mammalian (including human) pathologies that are associated with a dysfunctioning of Ca^2+-activated and/or voltage-gated Kv channel subtypes. Such pathologies include immune and/or neurological diseases like multiple sclerosis, Parkinson's and Alzheimer's diseases, both thought to be associated with a dysfunctioning of Ca^2+-activated and/or voltage-gated K^+ channel subtype(s). The axonal impulse propagation ensures a continued transmission of nervous signals to remote targets. In a number of neuropathies, the nervous conduction is either slowed down or locked. This could be linked to alteration or functional changes of myelinated fibres (demyelinisation or alteration of the membrane properties at the Ranvier nodes). Among these neuropathies are multiple sclerosis (central nervous system; CNS) and Guillain-Barr syndrome (peripheral nervous system). It is now well-admitted that alteration of the axonal function is related to the presence of voltage-gated (Kv) K^+ channels (there is a widespread distribution of Kv1.1 and Kv1.2 channel subtypes in nerve terminals throughout the brain, whereas Kv channels—independent of their subtypes—are considered to be ubiquitous, including in the peripheral nervous system), and possibly Ca^2+-activated K^+ channels. In the previously cited neuropathies, Ca^2+-activated K^+ channels and Kv channels are either abnormally exposed in demyelinated or inflammatory lesions, or over-expressed. Therefore, selective K^+-channel blockers, including Ca^2+-activated K^+ channel-acting and/or Kv-acting MTX/Pi1/HsTx1-derived peptides such as [Q15]-MTX, Pi1 amidated at C-terminus, [Abu9, 19, 29, 34]-MIX, are of potential therapeutic value as symptomatic therapy of multiple sclerosis and related neuropathies, as well as for use as selective immuno-suppressant drugs by their blocking action on Ca^2+-activated and/or Kv channels. Further, it can be speculated that such peptide blockers, in the CNS, could enhance transmitter release in pathways affected by progressive neurodegenerative diseases such as Alzheimer's disease.

[5] = system: Ca2+-activated K+ channels; assay: Activity of MTX analog on Ca2+-activated K+ channels; assay type: cell-based
Text: (§2) In one preferred derivative, the substitution of the MTX half-cystine residues (by amino butyrate derivatives) located at positions 9, 19, 29, and 34 (corresponding by numbers to C2, C4, C6, and C8) results in a two disulfide-bridged MTX analog, i.e. VSCTGSKDAbuYAPCRKQTGAbuPNAKCINKSAbuKCYGAbu-NH2 [SEQ. ID NO. 8], with novel, non-native arrangement of the half-cystine pairings (Cys3-Cys24 and Cys13-Cys31).

[6] = biological target: T1, mammalian voltage-gated Kv1.2 channel subtype; assay: Blocking activity on voltage-gated Kv1.2 channel; assay type: cell-based
Text: as §2
An alternative approach to replacement of Cys residues with Abu is the replacement of one or two amino acid residues in natural MTX with other residues which prevent the folding of the molecule in such a way that the unconventional C1-C5, C2-C6, C3-C7 and C4-C8 disulfide bridge arrangement can occur. For instance, if neither of the residues at positions 32 and 33 is a Gly or Pro residue, the folding is altered in such a way that the MTX derivative adopts the conventional C1-C5, C2-C6, C3-C7 and C4-C8 of Pi1 and HsTx1. In particular, replacement of the Gly residue at position 33 by an Ala residue substitution, forming [A33]-MTX [SEQ. ID NO. 4], is effective. Substitution of Arg14 and/or Lys15 by Gln to give [Q14]-MTX [SEQ. ID NO. 5], [Q15]-MTX [SEQ. ID NO. 6] or [Q14,Q15]-MTX [SEQ. ID NO. 7] also induces half-cystine pairings between Cys3-Cys24, Cys9-Cys29, Cys13-Cys31 and Cys19-Cys34.

[7] = system: C57/BL6 mice; assay: Lethality/toxicity in C57/BL6 mice, intracerebroventricular injection; assay type: in vivo
Text: as §1

T1 sequence (P16389 whole entry): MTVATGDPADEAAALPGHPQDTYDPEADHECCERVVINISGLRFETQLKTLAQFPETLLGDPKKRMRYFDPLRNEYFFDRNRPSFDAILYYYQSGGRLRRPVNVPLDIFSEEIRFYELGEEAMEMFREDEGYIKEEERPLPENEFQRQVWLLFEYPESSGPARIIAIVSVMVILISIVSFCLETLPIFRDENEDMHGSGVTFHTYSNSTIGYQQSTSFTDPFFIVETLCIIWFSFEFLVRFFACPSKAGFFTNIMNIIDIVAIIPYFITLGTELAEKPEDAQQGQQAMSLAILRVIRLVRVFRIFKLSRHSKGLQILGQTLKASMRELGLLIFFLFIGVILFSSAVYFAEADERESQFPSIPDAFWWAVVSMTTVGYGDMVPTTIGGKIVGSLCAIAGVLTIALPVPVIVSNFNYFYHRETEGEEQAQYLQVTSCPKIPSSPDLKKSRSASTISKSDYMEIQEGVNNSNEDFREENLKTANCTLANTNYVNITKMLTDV
Sequence of rat Kv1.3 channels (P15384 whole entry): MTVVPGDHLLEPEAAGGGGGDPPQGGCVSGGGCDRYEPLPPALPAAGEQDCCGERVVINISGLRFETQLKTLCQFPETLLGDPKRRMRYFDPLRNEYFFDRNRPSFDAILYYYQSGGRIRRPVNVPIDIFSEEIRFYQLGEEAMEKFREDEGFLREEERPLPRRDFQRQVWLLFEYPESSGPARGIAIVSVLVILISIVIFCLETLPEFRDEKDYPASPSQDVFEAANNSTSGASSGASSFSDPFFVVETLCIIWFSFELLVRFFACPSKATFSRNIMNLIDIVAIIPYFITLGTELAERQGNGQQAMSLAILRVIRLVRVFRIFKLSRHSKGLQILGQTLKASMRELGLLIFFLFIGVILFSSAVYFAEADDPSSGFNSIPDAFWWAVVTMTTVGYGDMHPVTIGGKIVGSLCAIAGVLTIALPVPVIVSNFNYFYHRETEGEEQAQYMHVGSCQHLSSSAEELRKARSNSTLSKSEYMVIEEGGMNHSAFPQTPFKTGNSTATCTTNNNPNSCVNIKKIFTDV

CC[C@H](C)[C@@H]1NC(=O)[C@@H]2CSSC[C@H](NC(=O)[C@H](CO)NC(=O)[C@@H](N)C(C)C)C(=O)N[C@@H]([C@@H](C)O)C(=O)NCC(=O)N[C@@H](CO)C(=O)N[C@@H](CCCCN)C(=O)N[C@@H](CC(=O)O)C(=O)N[C@@H](CSSC[C@@H](C(=O)N[C@@H](CCCCN)C(=O)N[C@H]3CSSC[C@@H](C(N)=O)NC(=O)CNC(=O)[C@H](Cc4ccc(O)cc4)NC3=O)NC(=O)[C@H](CO)NC(=O)[C@H](CCCCN)NC(=O)[C@H](CC(N)=O)NC1=O)C(=O)N[C@@H](Cc1ccc(O)cc1)C(=O)N[C@@H](C)C(=O)N1CCC[C@H]1C(=O)N[C@H]1CSSC[C@H](NC(=O)CNC(=O)[C@H]([C@@H](C)O)NC(=O)[C@H](CCC(N)=O)NC(=O)[C@H](CCCCN)NC(=O)[C@H](CCCNC(=N)N)NC1=O)C(=O)N1CCC[C@H]1C(=O)N[C@@H](CC(N)=O)C(=O)N[C@@H](C)C(=O)N[C@@H](CCCCN)C(=O)N2 [MTX] (H-VSCTGSKDCYAPCRKQTGCPNAKCINKSCKCYGC-NH2; disulfide 3-24, 9-29, 13-19, 31-34)
activity on Ca2+-activated K+ channels, e.g. apamin-sensitive SK channels [1]: active | activity on rat Kv1.3 channels [2]: active | activity on voltage-gated K+ channel subtypes including Kv1.2 [3]: active | LD50 ([4]; other: intracerebroventricular): 4 µg/kg

CC[C@H](C)[C@@H]1NC(=O)[C@@H]2CSSC[C@H](NC(=O)[C@H](CCCCN)NC(=O)[C@@H](NC(=O)[C@@H](N)CC(C)C)C(C)C)C(=O)N[C@@H](CCCNC(=N)N)C(=O)NCC(=O)N[C@@H]([C@@H](C)O)C(=O)N[C@@H](CO)C(=O)N[C@@H](CC(=O)O)C(=O)N[C@H]3CSSC[C@H](NC(=O)[C@H](CCSC)NC(=O)[C@H](CCCNC(=N)N)NC(=O)[C@H](CC(N)=O)NC1=O)C(=O)N[C@@H](CCCCN)C(=O)N[C@H]1CSSC[C@H](NC(=O)[C@@H]4CCCN4C(=O)[C@H](CCCNC(=N)N)NC(=O)CNC3=O)C(=O)N[C@@H](CCC(N)=O)C(=O)N[C@@H](CCC(N)=O)C(=O)N[C@@H](CCC(N)=O)C(=O)N[C@@H]([C@@H](C)O)C(=O)NCC(=O)N[C@@H](CSSC[C@@H](C(N)=O)NC(=O)CNC(=O)[C@H](Cc3ccc(O)cc3)NC1=O)C(=O)N1CCC[C@H]1C(=O)N[C@@H](CC(N)=O)C(=O)N[C@@H](CO)C(=O)N[C@@H](CCCCN)C(=O)N2 [Pi1] (H-LVKCRGTSDCGRPCQQQTGCPNSKCINRMCKCYGC-NH2; disulfide 4-25, 10-30, 14-32, 20-35; N-terminus and C-terminus assumed)
activity on Ca2+-activated K+ channels, e.g. apamin-sensitive SK channels [1]: active | activity on rat Kv1.3 channels [2]: active on rat Kv1.3 channels contrary to synthetic Pi1 | LD50 [4]: 10 µg/kg

CC[C@H](NC(=O)CNC(=O)[C@H](Cc1ccc(O)cc1)NC(=O)[C@@H]1CSSC[C@@H]2NC(=O)[C@@H]3CCCN3C(=O)[C@H](C)NC(=O)[C@H](Cc3ccc(O)cc3)NC(=O)[C@H](CC)NC(=O)[C@H](CC(=O)O)NC(=O)[C@H](CCCCN)NC(=O)[C@H](CO)NC(=O)CNC(=O)[C@H]([C@@H](C)O)NC(=O)[C@@H](NC(=O)[C@H](CO)NC(=O)[C@@H](N)C(C)C)CSSC[C@H](NC(=O)[C@H](CCCCN)NC(=O)[C@H](C)NC(=O)[C@H](CC(N)=O)NC(=O)[C@@H]3CCCN3C(=O)[C@H](CC)NC(=O)CNC(=O)[C@H]([C@@H](C)O)NC(=O)[C@H](CCC(N)=O)NC(=O)[C@H](CCCCN)NC(=O)[C@H](CCCNC(=N)N)NC2=O)C(=O)N[C@@H]([C@@H](C)CC)C(=O)N[C@@H](CC(N)=O)C(=O)N[C@@H](CCCCN)C(=O)N[C@@H](CO)C(=O)N[C@@H](CC)C(=O)N[C@@H](CCCCN)C(=O)N1)C(N)=O [[Abu9, 19, 29, 34]-MTX, VSCTGSKDAbuYAPCRKQTGAbuPNAKCINKSAbuKCYGAbu-NH2] (H-VSCTGSKD[Abu]YAPCRKQTG[Abu]PNAKCINKS[Abu]KCYG[Abu]-NH2; disulfide 3-24, 13-31)
activity on Ca2+-activated K+ channels [5]: remains active | IC50 [6]: 42 nM | lethality/toxicity ([7]; injected intracerebroventricularly, up to 1.25 mg/kg): neither lethal nor toxic

CC[C@H](C)[C@@H]1NC(=O)[C@@H]2CSSC[C@H](NC(=O)[C@H](CO)NC(=O)[C@@H](N)C(C)C)C(=O)N[C@@H]([C@@H](C)O)C(=O)NCC(=O)N[C@@H](CO)C(=O)N[C@@H](CCCCN)C(=O)N[C@@H](CC(=O)O)C(=O)N[C@H]3CSSC[C@H](NC(=O)[C@H](CO)NC(=O)[C@H](CCCCN)NC(=O)[C@H](CC(N)=O)NC1=O)C(=O)N[C@@H](CCCCN)C(=O)N[C@H]1CSSC[C@H](NC(=O)[C@@H]4CCCN4C(=O)[C@H](C)NC(=O)[C@H](Cc4ccc(O)cc4)NC3=O)C(=O)N[C@@H](CCCNC(=N)N)C(=O)N[C@@H](CCC(N)=O)C(=O)N[C@@H](CCC(N)=O)C(=O)N[C@@H]([C@@H](C)O)C(=O)NCC(=O)N[C@@H](CSSC[C@@H](C(N)=O)NC(=O)CNC(=O)[C@H](Cc3ccc(O)cc3)NC1=O)C(=O)N1CCC[C@H]1C(=O)N[C@@H](CC(N)=O)C(=O)N[C@@H](C)C(=O)N[C@@H](CCCCN)C(=O)N2 [[Q15]-MTX] (H-VSCTGSKDCYAPCRQQTGCPNAKCINKSCKCYGC-NH2; disulfide 3-24, 9-29, 13-31, 19-34)
lethality/toxicity ([7]; injected intracerebroventricularly at active concentrations): neither lethal nor toxic

HsTx1
activity on Ca2+-activated K+ channels, e.g. apamin-sensitive SK channels [1]: inactive
